# Reference: publication PMC10499049, “Characterization of norbelladine synthase and noroxomaritidine/norcraugsodine reductase reveals a novel catalytic route for the biosynthesis of Amaryllidaceae alkaloids including the Alzheimer’s drug galanthamine” (Frontiers in Plant Science, 2023)
# Assays:
# LaNR = molecular target: T1, LaNR (Leucojum aestivum, UniProt Z9Z857OJM6); test: HPLC-MS/MS of norbelladine formed, with and without NADPH; assay type: biochemical; conditions: […] NADPH; […] tyramine, […],4-DHBA; […] sodium citrate pH […]; […] C; […] h
# T1 construct: full-length 269 aa (29 kDa), N-terminal MBP fusion (pMAL-c2x), tag kept, E. coli Rosetta (DE3) pLysS
# NpNR = molecular target: T2, NpNR (Narcissus papyraceus, UniProt A0A346TLF8); test: as above; assay type: biochemical; conditions: 1 mM NADPH; 10 uM tyramine, 300 uM 3,4-DHBA; 100 mM sodium citrate pH 6.0; 35 C; 2 h
# T2 construct: gene NorRed1; full-length 269 aa (29 kDa), N-terminal MBP fusion (pMAL-c2x), tag kept, E. coli Rosetta (DE3) pLysS
# [1] = molecular target: N. papyraceus noroxomaritidine/norcraugsodine reductase, yeast two-hybrid fusions (Narcissus papyraceus)
# N. papyraceus noroxomaritidine/norcraugsodine reductase, yeast two-hybrid fusions (Narcissus papyraceus), sequence (A0A346TLF8 entry or part of it): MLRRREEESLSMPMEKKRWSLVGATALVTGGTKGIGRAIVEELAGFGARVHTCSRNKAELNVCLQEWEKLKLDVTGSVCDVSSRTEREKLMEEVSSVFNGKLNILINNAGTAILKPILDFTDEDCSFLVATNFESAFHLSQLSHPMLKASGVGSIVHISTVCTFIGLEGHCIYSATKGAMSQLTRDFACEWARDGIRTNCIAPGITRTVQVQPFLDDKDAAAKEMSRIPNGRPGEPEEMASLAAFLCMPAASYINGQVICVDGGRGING
# T2 sequence (A0A346TLF8 1-269): as the sequence (A0A346TLF8 entry or part of it) above
# T1 sequence (Z9Z857OJM6 1-271): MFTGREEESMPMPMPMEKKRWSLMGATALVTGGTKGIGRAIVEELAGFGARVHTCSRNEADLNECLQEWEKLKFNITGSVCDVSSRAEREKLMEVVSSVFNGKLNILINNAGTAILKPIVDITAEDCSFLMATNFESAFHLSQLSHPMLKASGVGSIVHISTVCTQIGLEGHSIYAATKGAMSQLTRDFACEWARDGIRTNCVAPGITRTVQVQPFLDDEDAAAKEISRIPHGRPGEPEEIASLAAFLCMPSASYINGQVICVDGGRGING
"norbelladine produced by yeast cultures co-expressing NpNBS and NpNR, fed with tyramine and 3,4-DHBA (HPLC-MS/MS, peak area relative to papaverine); none detected with either enzyme alone (relative peak area ratio) [1]",Molecule,"HPLC-MS/MS of norbelladine formed, with and without NADPH (LaNR)","HPLC-MS/MS of norbelladine formed, with and without NADPH (NpNR)"
–,NC(=O)C1=CN([C@@H]2O[C@H](COP(=O)(O)OP(=O)(O)OC[C@H]3O[C@@H](n4cnc5c(N)ncnc54)[C@H](OP(=O)(O)O)[C@@H]3O)[C@@H](O)[C@H]2O)C=CC1 [NADPH],NR assays lacking NADPH resulted in no norbelladine production,NR assays lacking NADPH resulted in no norbelladine production
0.22,"N. papyraceus norbelladine synthase, yeast two-hybrid fusions (enzyme)",–,–
